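Five concentrations, 48 hours, 96-well plates. GI50 = concentration required for 50% inhibition of growth.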 Active and inactive are the calls of the source. No stated cut-off is given here; in the data, active = GI50 up to about 1.1 µM and inactive = higher. Non-standard residues stand in square brackets, D forms with d. Residues, ends and D or L forms follow the SMILES beside them. *: point of attachment. Phe(4-NO2) = N[CH](Cc1ccc([N+](=O)[O-])cc1)C(=O)O; Boc = CC(C)(C)OC(=O)*
Key:
Experiment in all cases: NCI anticancer screen, dose series, 48 h
[1] = test system: LXFL 529
[2] = test system: HOP-18
[3] = test system: DMS-273
[4] = test system: RXF 631
[5] = test system: KM-20L2
[6] = test system: Hs-578T
[7] = test system: BT-549
[8] = test system: T47D
[9] = test system: DU-145

Structure (SMILES) | GI50 [1] | GI50 [2] | GI50 [3] | GI50 [4] | GI50 [5] | GI50 [6] | GI50 [7] | GI50 [8] | GI50 [9]
CCOC(=O)NC(=O)c1cn(CCNCCO)c(=O)[nH]c1=O | > 100 µM (inactive) | – | – | – | – | – | – | – | –
NC(S)=Nc1cc(Cl)ccc1Cl | > 100 µM (inactive) | > 100 µM (inactive) | > 100 µM (inactive) | > 100 µM (inactive) | > 100 µM (inactive) | – | – | – | –
c1nc2nc[nH]c(SSc3[nH]cnc4ncnc3-4)c-2n1 | – | – | – | – | – | 5.89 µM (inactive) | 14.1 µM (inactive) | 2.64 µM (inactive) | –
Cc1ccc(N(O)C(C)(C)C)cc1 | – | > 100 µM (inactive) | > 100 µM (inactive) | – | > 100 µM (inactive) | – | – | – | –
COc1nc(-c2cn(S(=O)(=O)c3ccc(C)cc3)c3ccc(Br)cc23)cc(C(F)(F)F)c1C#N | – | – | – | – | – | – | 24.5 µM (inactive) | 19.5 µM (inactive) | 16.5 µM (inactive)
CC(=O)Nc1ccc(C(=O)NN2C(=O)C(Cl)C2/C=C/c2ccccc2)cc1 (configuration not stated) | > 100 µM (inactive) | > 100 µM (inactive) | – | – | – | – | – | – | –
O=[N+]([O-])c1cc2ncc(-c3ccccc3)c(O)c2cc1/C(Cl)=C/c1ccccc1 | – | 2.11 µM (inactive) | 5.61 µM (inactive) | – | 17.7 µM (inactive) | – | – | – | –
CC1(C)OC2COC3(CNO)OC(C)(C)OC3C2O1 (configuration not stated) | – | > 100 µM (inactive) | > 100 µM (inactive) | – | – | – | – | – | –
COc1ccc(OC)c(C(=O)/C=C/c2cc(O)c(O)cc2F)c1 | – | – | – | – | – | 0.424 µM (active) | 0.843 µM (active) | 5.85 µM (inactive) | 0.817 µM (active)
CC(=O)/C=C/c1c[nH]c(=O)[nH]c1=O | – | 155 µM (inactive) | 89.1 µM (inactive) | – | 213 µM (inactive) | – | – | – | –
Nc1nc(=O)n(CC(O)CO)s1 (configuration not stated) | > 100 µM (inactive) | > 100 µM (inactive) | > 100 µM (inactive) | > 100 µM (inactive) | > 100 µM (inactive) | – | – | – | –
CC(C)(C)[Si](C)(C)OCCOCn1cc(F)c(=O)[nH]c1=O | – | – | – | – | – | > 100 µM (inactive) | > 100 µM (inactive) | 69 µM (inactive) | 36.5 µM (inactive)
CC(C)(C)[Si](OC1CC(n2cnc3c(N)ncnc32)OC1CO)(c1ccccc1)c1ccccc1 (configuration not stated) | 34.6 µM (inactive) | 67.6 µM (inactive) | 18.7 µM (inactive) | – | 15.4 µM (inactive) | – | – | – | –
COc1ccc(N2C(=O)CSC2c2c[nH]c3ccccc23)cc1 (configuration not stated) | – | – | – | – | – | – | 85.1 µM (inactive) | > 100 µM (inactive) | 51.8 µM (inactive)
O=C(NCCCCCCNC(=O)n1cc(F)c(=O)[nH]c1=O)NCCCOCCOCCCNC(=O)C(O)C(O)C(O)C(O)CO (configuration not stated) | – | > 2.5 µM (inactive) | > 2.5 µM (inactive) | – | > 2.5 µM (inactive) | – | – | – | –
S=C(N/N=C(/c1ccccc1)c1ccccn1)Nc1cccc(Cl)c1 | – | – | – | – | – | 1.52 µM (inactive) | 1.05 µM (active) | 0.00369 µM (active) | 1.15 µM (inactive)
N#CC1=C(N)C(C#N)(C#N)C(c2ccc(F)cc2)C=C1C1CC1 (configuration not stated) | – | – | – | – | – | 16.5 µM (inactive) | 3.2 µM (inactive) | 12.1 µM (inactive) | 12.9 µM (inactive)
Nc1ncnc2c1sc1nc3ccccc3n12 | – | – | – | – | – | 12.2 µM (inactive) | 80 µM (inactive) | > 100 µM (inactive) | > 100 µM (inactive)
[O-][S+]1c2ccccc2NC(c2ccc3ccccc3c2)CC1c1ccccc1 (configuration not stated) | 15.7 µM (inactive) | > 100 µM (inactive) | 29.5 µM (inactive) | – | 22.9 µM (inactive) | – | – | – | –
Cc1[nH]c(=O)nc(S)c1C(=O)NC1C2CCCCC2NC2CCCCC21 (configuration not stated) | – | – | – | – | – | 23.4 µM (inactive) | 16.4 µM (inactive) | 7.59 µM (inactive) | 11.8 µM (inactive)

Structure (SMILES) | GI50 [1] | GI50 [2] | GI50 [3] | GI50 [4] | GI50 [5] | GI50 [6] | GI50 [7] | GI50 [8] | GI50 [9]
O=C1CC(=O)N(c2ccccc2)N1/C(=C/c1ccccc1)c1ccccc1 | – | – | – | – | – | 17.3 µM (inactive) | 23.6 µM (inactive) | 21.3 µM (inactive) | 24.4 µM (inactive)
CCOC(=O)[C@H]1Nc2c(cccc2[N+](=O)[O-])[C@H]2OCC[C@@H]12 | > 100 µM (inactive) | > 100 µM (inactive) | > 100 µM (inactive) | > 100 µM (inactive) | > 100 µM (inactive) | – | – | – | –
CN1C(=O)[C@@H]2[C@@H]3c4ccccc4N[C@@H]3c3[nH]c4ccccc4c3[C@@H]2C1=O | – | – | – | – | – | 28.3 µM (inactive) | 18.7 µM (inactive) | – | 41.7 µM (inactive)
Nc1c(Br)cc2c(c1Br)Cc1cc(Br)ccc1-2 | – | – | – | – | – | > 100 µM (inactive) | – | > 100 µM (inactive) | > 100 µM (inactive)
CCSc1nc(N)c2c(-c3ccccc3)c3c(nc2n1)CCC3 | – | – | – | – | – | > 100 µM (inactive) | > 100 µM (inactive) | > 100 µM (inactive) | > 100 µM (inactive)
N=C(N)NS(=O)(=O)c1ccc(Nc2c3ccccc3nc3c(C(=O)N4CCN(CCO)CC4)ccc(Cl)c23)cc1 | – | – | – | – | > 100 µM (inactive) | – | – | – | –
C[C@]12C[C@H](O)[C@H]3[C@@H](CCC4=CC(=O)CC[C@@]43C)[C@@H]1CC[C@@H]2c1csc(-c2ccccc2)n1 | – | – | – | – | – | 30.1 µM (inactive) | > 100 µM (inactive) | 3.15 µM (inactive) | > 51.6 µM (inactive)
CN(C)c1ccc(C2ON=C(c3ccccc3)N2C23CC4CC(CC(C4)C2)C3)cc1 (configuration not stated) | – | – | – | – | – | > 10 µM (inactive) | > 10 µM (inactive) | > 10 µM (inactive) | > 10 µM (inactive)
C[Si](C)(C)CC(N)=O | > 100 µM (inactive) | > 100 µM (inactive) | > 100 µM (inactive) | > 100 µM (inactive) | > 100 µM (inactive) | – | – | – | –
CC(C)(Br)C(Br)CCC(C)(Br)C(Br)CO (configuration not stated) | – | – | – | – | – | > 10 µM (inactive) | > 10 µM (inactive) | > 10 µM (inactive) | > 10 µM (inactive)
COc1ccc(-c2c(C#N)c(N)nc3c2CCS(=O)(=O)c2ccccc2-3)cc1 | – | – | – | – | – | 37.7 µM (inactive) | > 100 µM (inactive) | > 100 µM (inactive) | > 100 µM (inactive)
Cc1cnc(SCCN2CCN(C)CC2)nc1-c1cc2ccccc2s1 | 13.8 µM (inactive) | < 0.01 µM (active) | 4.93 µM (inactive) | – | – | – | – | – | –
COc1ccccc1NC(=O)/C(Cc1nc2ccc([N+](=O)[O-])cc2nc1O)=N\NC(=O)C[N+](C)(C)C | – | – | – | – | – | > 100 µM (inactive) | > 100 µM (inactive) | – | > 100 µM (inactive)
Cc1cccc(C)c1NC(=S)N/C=C(\C#N)C(N)=O | – | – | – | – | – | > 100 µM (inactive) | – | – | > 100 µM (inactive)
O1C2C1C1OC1C1OC1C1OC21 (configuration not stated) | – | – | – | – | – | > 100 µM (inactive) | > 100 µM (inactive) | > 100 µM (inactive) | > 100 µM (inactive)
N/N=C1/C2CN3CCN(C2)CC1(c1ccc([N+](=O)[O-])cc1)C3 | – | – | – | – | – | 14.7 µM (inactive) | > 100 µM (inactive) | – | > 100 µM (inactive)
COc1cc(/N=N\c2cccc(S(=O)(=O)O)c2)c(C)cc1/N=N\c1ccc(/C=C/c2ccc(/N=[N+](/[O-])c3ccc(/C=C/c4ccc(/N=N\c5cc(C)c(/N=N/c6cccc(S(=O)(=O)O)c6)cc5OC)cc4)c(S(=O)(=O)O)c3)cc2S(=O)(=O)O)cc1 | – | > 100 µM (inactive) | > 100 µM (inactive) | – | > 100 µM (inactive) | – | – | – | –
O=C(/C=C/c1ccc(O)c(O)c1)O[C@H]1CCCC[C@@H]1OC(=O)/C=C/c1ccc(O)c(O)c1 | – | – | – | – | – | 29.9 µM (inactive) | 17.5 µM (inactive) | 16.2 µM (inactive) | 13.8 µM (inactive)
COC(=O)CCC(NC(=O)OC(C)(C)C)C(=O)NC(Cc1ccc([N+](=O)[O-])cc1)C(=O)NC(CCC(=O)OC)C(=O)OC (configuration not stated) (Boc-Glu(OMe)-[Phe(4-NO2)]-Glu(OMe)-OMe; configuration not given here) | – | – | – | – | – | > 100 µM (inactive) | – | > 100 µM (inactive) | > 100 µM (inactive)
CCN(CC)c1ccc2cc(C(=O)Nc3ccc4[nH]c(C(=O)N5C[C@@H](CCl)c6c5cc(OC(=O)Nc5ccccc5)c5[nH]cc(C)c65)cc4c3)oc2c1 [CARZELESIN] | – | < 0.1 µM (active) | 9.33e-05 µM (active) | – | 944 µM (inactive) | – | – | – | –

Source: ChEMBL document CHEMBL1201862, “PubChem BioAssay data set” (2004)
